Patent US4132846A
Converted amounts (≈) assume the structure as drawn. Read-outs that look alike come from different tables or passages of the source.

Assays:
[1] = system: Bacillus subtilis No. 10707; experiment: MIC, agar dilution method at pH 8.0; type: cell-based
[2] = system: Staphylococcus aureus ATC 6538P; experiment: MIC, agar dilution method at pH 8.0; type: cell-based; details: ATC6538P
[3] = system: Staphylococus aureus Smith; experiment: MIC, agar dilution method at pH 7.2; type: cell-based
Text: (§1) Anti-bacterial Spectrum (Minimum Inhibitory Concentration, mcg/ml)

[4] = in water and methanol; cited from earlier work
[5] = system: Salmonella typhosa ATCC 9992; experiment: MIC, agar dilution method at pH 8.0; type: cell-based; details: Salmonella enterica, pH 8, read-out: minimum Inhibitory Concentration
[6] = system: Escherichia coli KY 8327; experiment: MIC, agar dilution method at pH 8.0; type: cell-based; details: KY8327, Escherichia coli KY 8327 (produces gentamicin adenyltransferase), read-out: minimum Inhibitory Concentration
Text: (§2) The former bacterium inactivates kanamycins and gentamicins by adenylation, and the latter inactivates gentamicins by acetylation.

[7] = system: Escherichia coli KY 8348; experiment: MIC, agar dilution method at pH 8.0; type: cell-based; details: KY8348, Escherichia coli KY 8348 (produces gentamicin acetyltransferase Type I), read-out: minimum Inhibitory Concentration
Text: as §2

[8] = system: Proteus vulgaris ATCC 6897; experiment: microbe, parasite or virus in culture; type: cell-based; details: ATCC6897, pH 8, read-out: minimum Inhibitory Concentration
[9] = system: Pseudomonas aeruginosa KY 8512; experiment: MIC, agar dilution method at pH 7.2; type: cell-based; details: KY8512, Pseudomonas aeruginosa KY 8512 (neomycin-kanamycin phosphotransferase Type I and II, streptomycin phosphotransferase), read-out: Minimum Inhibitory Concentration
Text: as §1
^7 produces neomycin-kanamycin phosphotransferase Type I and Type II
and streptomycin phosphotransferase

[10] = system: Klebsiella pneumoniae ATCC 10031; experiment: MIC, agar dilution method at pH 8.0; type: cell-based; details: ATCC10031, pH 8, read-out: minimum Inhibitory Concentration
[11] = system: Shigella sonnei ATCC 9290; experiment: microbe, parasite or virus in culture; type: cell-based; details: ATCC9290, agar dilution, pH 8.0, read-out: minimum Inhibitory Concentration
[12] = system: Pseudomonas aeruginosa BMH 1; experiment: MIC, agar dilution method at pH 8.0; type: cell-based; details: BMH1, read-out: minimum Inhibitory Concentration
[13] = system: Escherichia coli KY 8321; experiment: MIC, agar dilution method at pH 7.2; type: cell-based; details: KY8321, Escherichia coli KY 8321 (gentamicin adenyltransferase and neomycin-kanamycin phosphotransferase Type II), read-out: Minimum Inhibitory Concentration
Text: ^2 produces gentamicin adenyltransferase and neomycin-kanamycin
phosphotransferase Type II

[14] = system: Pseudomonas aeruginosa KY 8511; experiment: MIC, agar dilution method at pH 7.2; type: cell-based; details: KY8511, Pseudomonas aeruginosa KY 8511 (gentamicin acetyltransferase Type I and neomycin-kanamycin phosphotransferase Type I), read-out: Minimum Inhibitory Concentration
Text: ^6 produces gentamicin acetyltransferase Type I and neomycin-kanamyci

[15] = system: Klebsiella pneumoniae No. 8045; experiment: MIC, agar dilution method at pH 7.2; type: cell-based; details: read-out: Minimum Inhibitory Concentration
Text: as §1

[16] = system: Staphylococcus aureus 209 P; experiment: MIC, agar dilution method at pH 7.2; type: cell-based; details: read-out: Minimum Inhibitory Concentration
Text: as §1

[17] = system: Pseudomonas aeruginosa BMH 1; experiment: MIC, agar dilution method at pH 7.2; type: cell-based; details: BMH1, read-out: Minimum Inhibitory Concentration
Text: as §1

[18] = system: Escherichia coli T-2; experiment: MIC, agar dilution method at pH 7.2; type: cell-based; details: T2, read-out: Minimum Inhibitory Concentration
Text: as §1

[19] = system: Proteus vulgaris 6897; experiment: MIC, agar dilution method at pH 7.2; type: cell-based
Text: as §1

[20] = system: Bacillus subtilis ATCC 6633; experiment: MIC, agar dilution method at pH 7.2; type: cell-based; details: ATCC6633, read-out: Minimum Inhibitory Concentration
Text: as §1

[21] = system: Proteus mirabilis 1287; experiment: MIC, agar dilution method at pH 7.2; type: cell-based; details: read-out: Minimum Inhibitory Concentration
Text: as §1

[22] = system: Pseudomonas aeruginosa KY 8510; experiment: MIC, agar dilution method at pH 7.2; type: cell-based; details: KY8510, Pseudomonas aeruginosa KY 8510 (kanamycin acetyltransferase), read-out: Minimum Inhibitory Concentration
[23] = system: Escherichia coli KY 8349; experiment: MIC, agar dilution method at pH 7.2; type: cell-based; details: KY8349, Escherichia coli KY 8349 (neomycin-kanamycin phosphototransferase Type I), read-out: Minimum Inhibitory Concentration
Text: ^4 produces neomycin-kanamycin phosphototransferase Type I

[24] = system: Providencia sp. 164; experiment: MIC, agar dilution method at pH 7.2; type: cell-based; details: Providencia sp. 164 (gentamicin acetyltransferase Type II), read-out: Minimum Inhibitory Concentration
[25] = system: Escherichia coli KY 8348; experiment: MIC, agar dilution method at pH 7.2; type: cell-based; details: KY8348, Escherichia coli KY 8348 (gentamicin acetyltransferase Type I), read-out: Minimum Inhibitory Concentration
[26] = system: Escherichia coli ATC 26; experiment: MIC, agar dilution method at pH 8.0; type: cell-based; details: ATC26, read-out: minimum Inhibitory Concentration
[27] = system: Escherichia coli KY 8327; experiment: MIC, agar dilution method at pH 7.2; type: cell-based; details: KY8327, Escherichia coli KY 8327 (produces gentamicin adenyltransferase), read-out: Minimum Inhibitory Concentration
Text: as §1
^1 produces gentamicin adenyltransferase

[28] = system: Pseudomonas aeruginosa KY 8516; experiment: MIC, agar dilution method at pH 7.2; type: cell-based; details: KY8516, Pseudomonas aeruginosa KY 8516 (probably kanamycin acetyltransferase), read-out: Minimum Inhibitory Concentration
[29] = system: Proteus rettgeri KY 4288; experiment: MIC, agar dilution method at pH 7.2; type: cell-based; details: Providencia rettgeri, KY4288, pH 7.2, read-out: Minimum Inhibitory Concentration
[30] = system: Sarcina lutea ATCC 9341; experiment: MIC, agar dilution method at pH 7.2; type: cell-based; details: Micrococcus luteus, ATCC9341, read-out: Minimum Inhibitory Concentration
Text: as §1

[31] = system: Escherichia coli T-5; experiment: MIC, agar dilution method at pH 7.2; type: cell-based; details: T5, read-out: Minimum Inhibitory Concentration
Text: as §1

[32] = system: Proteus morganii KY 4298; experiment: MIC, agar dilution method at pH 7.2; type: cell-based; details: Morganella morganii, KY4298, pH 7.2, read-out: Minimum Inhibitory Concentration
Text: as §1

[33] = Bacillus subtilis No. 10707, agar dilution, pH 8.0, read-out: minimum Inhibitory Concentration
[34] = Staphylococcus aureus ATC 6538P, agar dilution, pH 8.0, read-out: minimum Inhibitory Concentration
[35] = Staphylococus aureus Smith, agar dilution, pH 7.2, read-out: Minimum Inhibitory Concentration
[36] = Bacillus subtilis, NO.10707, pH 8, read-out: minimum Inhibitory Concentration
[37] = Staphylococcus aureus, pH 8, read-out: minimum Inhibitory Concentration
[38] = Proteus vulgaris 6897, agar dilution, pH 7.2, read-out: Minimum Inhibitory Concentration

Row | Structure (SMILES) | MIC [5] [µg/mL] | MIC [6] [µg/mL] | MIC [7] [µg/mL] | MIC [8] [µg/mL] | MIC [9] [µg/mL] | MIC [10] [µg/mL] | MIC [11] [µg/mL] | MIC [12] [µg/mL] | MIC [13] [µg/mL] | MIC [14] [µg/mL] | MIC [15] [µg/mL] | MIC [16] [µg/mL] | MIC [17] [µg/mL] | MIC [20] [µg/mL] | MIC [21] [µg/mL] | MIC [22] [µg/mL] | MIC [23] [µg/mL] | MIC [24] [µg/mL] | MIC [25] [µg/mL] | MIC [26] [µg/mL] | also measured
1 | CNC[C@@H]1CC[C@@H](N)[C@@H](O[C@H]2[C@H](O)[C@@H](O[C@H]3OC[C@](C)(O)[C@H](NC)[C@H]3O)[C@H](N)C[C@@H]2N)O1 [XK-62-2, reference compound] | – | – | – | – | – | – | – | – | – | – | – | – | – | – | – | – | – | – | – | – | MIC [1, 33]: 0.004 µg/mL (≈ 0.00863 µM); MIC [2, 34]: 0.008 µg/mL (≈ 0.0173 µM); MIC [3, 35]: < 0.05 µg/mL; solubility [4]: freely soluble
2 | NC[C@H]1O[C@H](O[C@H]2[C@H](O)[C@@H](O[C@H]3O[C@H](CO)[C@@H](O)[C@H](N)[C@H]3O)[C@H](N)C[C@@H]2N)[C@H](O)[C@@H](O)[C@@H]1O [Kanamycin A, kanamycin A, reference compound] | 0.08 (≈ 0.165 µM) | – | – | – | – | – | – | – | – | – | – | – | – | – | – | – | – | – | – | – | MIC ([3]; pH 7.2, read-out: Minimum Inhibitory Concentration): 0.2 µg/mL (≈ 0.413 µM)
3 | CNCC1CCC(N)C(OC2C(N)CC(NC(=O)[C@H](O)CN)C(OC3OCC(C)(O)C(NC)C3O)C2O)O1 (stereo partly drawn) [D-form] | 0.004 (≈ 0.00726 µM) | 0.004 (≈ 0.00726 µM) | 0.004 (≈ 0.00726 µM) | 0.033 (≈ 0.0599 µM) | 1.56 (≈ 2.83 µM) | 0.004 (≈ 0.00726 µM) | 0.008 (≈ 0.0145 µM) | 2.08 (≈ 3.78 µM) | 0.2 (≈ 0.363 µM) | 3.12 (≈ 5.67 µM) | 0.2 (≈ 0.363 µM) | 0.05 (≈ 0.0908 µM) | 1.56 (≈ 2.83 µM) | 0.05 (≈ 0.0908 µM) | 3.12 (≈ 5.67 µM) | 3.12 (≈ 5.67 µM) | 0.2 (≈ 0.363 µM) | 6.25 (≈ 11.4 µM) | 0.2 (≈ 0.363 µM) | 0.004 (≈ 0.00726 µM) | MIC [1, 36]: 0.004 µg/mL (≈ 0.00726 µM); MIC [2, 37]: 0.004 µg/mL (≈ 0.00726 µM); MIC [18]: 0.2 µg/mL (≈ 0.363 µM); MIC [19, 38]: 0.78 µg/mL (≈ 1.42 µM); MIC [27]: 0.2 µg/mL (≈ 0.363 µM)
4 | CNCC1CCC(N)C(OC2C(N)CC(NC(=O)[C@@H](O)CN)C(OC3OCC(C)(O)C(NC)C3O)C2O)O1 (stereo partly drawn) [L-form] | 0.004 (≈ 0.00726 µM) | 0.004 (≈ 0.00726 µM) | 0.004 (≈ 0.00726 µM) | 0.033 (≈ 0.0599 µM) | 0.78 (≈ 1.42 µM) | 0.004 (≈ 0.00726 µM) | 0.008 (≈ 0.0145 µM) | 1.04 (≈ 1.89 µM) | 0.4 (≈ 0.726 µM) | 3.12 (≈ 5.67 µM) | 0.2 (≈ 0.363 µM) | 0.05 (≈ 0.0908 µM) | 1.56 (≈ 2.83 µM) | 0.05 (≈ 0.0908 µM) | 3.12 (≈ 5.67 µM) | 3.12 (≈ 5.67 µM) | 0.2 (≈ 0.363 µM) | 6.25 (≈ 11.4 µM) | 0.2 (≈ 0.363 µM) | 0.004 (≈ 0.00726 µM) | MIC [1, 36]: 0.004 µg/mL (≈ 0.00726 µM); MIC [2, 37]: 0.004 µg/mL (≈ 0.00726 µM); MIC [19, 38]: 1.56 µg/mL (≈ 2.83 µM); MIC [27]: 0.2 µg/mL (≈ 0.363 µM)
5 | CNCC1CCC(N)C(OC2C(N)CC(NC(=O)C(O)CN)C(OC3OCC(C)(O)C(NC)C3O)C2O)O1 (racemic) [DL-form] | 0.004 (≈ 0.00726 µM) | 0.004 (≈ 0.00726 µM) | 0.004 (≈ 0.00726 µM) | 0.033 (≈ 0.0599 µM) | 0.78 (≈ 1.42 µM) | 0.033 (≈ 0.0599 µM) | 0.016 (≈ 0.0291 µM) | 1.04 (≈ 1.89 µM) | 0.2 (≈ 0.363 µM) | 3.12 (≈ 5.67 µM) | 0.2 (≈ 0.363 µM) | 0.1 (≈ 0.182 µM) | 1.56 (≈ 2.83 µM) | 0.1 (≈ 0.182 µM) | 3.12 (≈ 5.67 µM) | 3.12 (≈ 5.67 µM) | 0.2 (≈ 0.363 µM) | 12.5 (≈ 22.7 µM) | 0.2 (≈ 0.363 µM) | 0.008 (≈ 0.0145 µM) | MIC [28]: 3.12 µg/mL (≈ 5.67 µM); MIC [1, 33]: 0.008 µg/mL (≈ 0.0145 µM); MIC [2, 34]: 0.065 µg/mL (≈ 0.118 µM); MIC [29]: 0.78 µg/mL (≈ 1.42 µM); MIC [30]: 0.4 µg/mL (≈ 0.726 µM); MIC [31]: 0.4 µg/mL (≈ 0.726 µM); MIC [32]: 0.78 µg/mL (≈ 1.42 µM); MIC [3, 35]: 0.05 µg/mL (≈ 0.0908 µM); MIC [18]: 0.4 µg/mL (≈ 0.726 µM); MIC ([19]; Proteus vulgaris, 6897, pH 7.2, read-out: Minimum Inhibitory Concentration): 3.12 µg/mL (≈ 5.67 µM); MIC [27]: 0.4 µg/mL (≈ 0.726 µM)
